Measured values published in PubChem BioAssay AID2060898 (Molecular Pharmacology Branch, DTP, NCI, 2025).

Test system: 616215-338-R-J1-PDC complex spheroid viability
Test: Anticancer human tumor 616215-338-R-J1-PDC patient-derived colon adenocarcinoma cell line growth inhibition [RAS]
Conditions: for IC50: curve of first compound; for viability, T/C: stronger effect = lower value
Method in brief: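 Multi-cell-type spheroids: tumor cells plus HUVEC endothelial cells and mesenchymal stem cells. RAS-pathway inhibitors were combined with targeted agents, each dosed in half-log steps down from clinical Cmax, or from 10 microM when Cmax was unknown.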

[1] = second compound 0.000949 µM, first compound 0.0316 µM
[2] = second compound 0.000949 µM, first compound 0.1 µM
[3] = second compound 0.000949 µM, first compound 0.316 µM
[4] = second compound 0.000949 µM, first compound 1 µM
[5] = second compound 0.003 µM, first compound 0.0316 µM
[6] = second compound 0.003 µM, first compound 0.1 µM
[7] = second compound 0.003 µM, first compound 0.316 µM
[8] = second compound 0.003 µM, first compound 1 µM
[9] = second compound 0.00949 µM, first compound 0.0316 µM
[10] = second compound 0.00949 µM, first compound 0.1 µM
[11] = second compound 0.00949 µM, first compound 0.316 µM
[12] = second compound 0.00949 µM, first compound 1 µM
[13] = second compound 0.03 µM, first compound 0.0316 µM
[14] = second compound 0.03 µM, first compound 0.1 µM
[15] = second compound 0.03 µM, first compound 0.316 µM
[16] = second compound 0.03 µM, first compound 1 µM
[17] = second compound 0.0949 µM, first compound 0.0316 µM
[18] = second compound 0.0949 µM, first compound 0.1 µM
[19] = second compound 0.0949 µM, first compound 0.316 µM
[20] = second compound 0.0949 µM, first compound 1 µM
[21] = second compound 0.3 µM, first compound 0.0316 µM
[22] = second compound 0.3 µM, first compound 0.1 µM
[23] = second compound 0.3 µM, first compound 0.316 µM
[24] = second compound 0.3 µM, first compound 1 µM
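Further: spheroids exposed to agents for seven days before viability readout.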
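Wherever viability, T/C is given: 100% = DMSO vehicle control viability.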

Compound `NC1c2ccccc2OC12CCN(c1cnc3c(N4CCCc5ncccc54)n[nH]c3n1)CC2` (centres undefined) + CCn1c(-c2cccnc2C(C)OC)c2c3cc(ccc31)N1CCOC(CC(NC(=O)C(C(C)C)N(C)C(=O)C3(F)CCN(C(=O)C#CC(C)(C)N(C)C)CC3)C(=O)N3CCCC(N3)C(=O)OCC(C)(C)C2)C1 has an IC50 (second compound 0.000949 µM) of 6250 nM, an IC50 (second compound 0.003 µM) of 7000 nM and an IC50 (second compound 0.00949 µM) of over 10000 nM. It also gave an IC50 (second compound 0.03 µM) of 2960 nM, an IC50 (second compound 0.0949 µM) of 1700 nM and an IC50 (second compound 0.3 µM) of 564 nM. It also gave a viability, T/C [1] of 121%, a viability, T/C [2] of 92.4% and a viability, T/C [3] of 81.9%. For the same compound, the viability, T/C [4] was 67.8%, the viability, T/C (second compound 0.000949 µM, first compound 3.16 µM) was 61% and the viability, T/C (second compound 0.000949 µM, first compound 10 µM) was 43.1%. For the same compound, the viability, T/C [5] was 119%, the viability, T/C [6] was 94.7% and the viability, T/C [7] was 75.5%. For the same compound, the viability, T/C [8] was 64.8%, the viability, T/C (second compound 0.003 µM, first compound 3.16 µM) was 64.2% and the viability, T/C (second compound 0.003 µM, first compound 10 µM) was 43%. The viability, T/C [9] was 113%, the viability, T/C [10] was 85.2% and the viability, T/C [11] was 72.7%. For the same compound, the viability, T/C [12] was 59%, the viability, T/C (second compound 0.00949 µM, first compound 3.16 µM) was 64.6% and the viability, T/C (second compound 0.00949 µM, first compound 10 µM) was 49.5%. It also gave a viability, T/C [13] of 106%, a viability, T/C [14] of 85.1% and a viability, T/C [15] of 76.9%. For the same compound, the viability, T/C [16] was 56.4%, the viability, T/C (second compound 0.03 µM, first compound 3.16 µM) was 56.7% and the viability, T/C (second compound 0.03 µM, first compound 10 µM) was 35%. It also gave a viability, T/C [17] of 105%, a viability, T/C [18] of 75.7% and a viability, T/C [19] of 59.4%. For the same compound, the viability, T/C [20] was 56.3%, the viability, T/C (second compound 0.0949 µM, first compound 3.16 µM) was 51.8% and the viability, T/C (second compound 0.0949 µM, first compound 10 µM) was 38.5%. The viability, T/C [21] was 73.4%, the viability, T/C [22] was 58% and the viability, T/C [23] was 56.2%. It also gave a viability, T/C [24] of 46.6%, a viability, T/C (second compound 0.3 µM, first compound 3.16 µM) of 42.8% and a viability, T/C (second compound 0.3 µM, first compound 10 µM) of 41%.
In the case of `Nc1ccn(C2OC(CO)C(O)C2(F)F)c(=O)n1` (centres undefined) + CCn1c(-c2cccnc2C(C)OC)c2c3cc(ccc31)N1CCOC(CC(NC(=O)C(C(C)C)N(C)C(=O)C3(F)CCN(C(=O)C#CC(C)(C)N(C)C)CC3)C(=O)N3CCCC(N3)C(=O)OCC(C)(C)C2)C1, the IC50 (second compound 0.000949 µM) is reported as 15.2 nM, the IC50 (second compound 0.003 µM) is reported as 11.2 nM and the IC50 (second compound 0.00949 µM) is reported as 14.6 nM. For the same compound, the IC50 (second compound 0.03 µM) was 11.5 nM, the IC50 (second compound 0.0949 µM) was 10.1 nM and the IC50 (second compound 0.3 µM) was 9.55 nM. For the same compound, the viability, T/C (second compound 0.000949 µM, first compound 0.00316 µM) was 105%, the viability, T/C (second compound 0.000949 µM, first compound 0.01 µM) was 62.8% and the viability, T/C [1] was 28%. The viability, T/C [2] was 13.1%, the viability, T/C [3] was 16.3% and the viability, T/C [4] was 14.2%. It also gave a viability, T/C (second compound 0.003 µM, first compound 0.00316 µM) of 114%, a viability, T/C (second compound 0.003 µM, first compound 0.01 µM) of 51.5% and a viability, T/C [5] of 29%. The viability, T/C [6] was 14.6%, the viability, T/C [7] was 11.6% and the viability, T/C [8] was 12.4%. The viability, T/C (second compound 0.00949 µM, first compound 0.00316 µM) was 108%, the viability, T/C (second compound 0.00949 µM, first compound 0.01 µM) was 61.2% and the viability, T/C [9] was 27.5%. The viability, T/C [10] was 14.7%, the viability, T/C [11] was 14.1% and the viability, T/C [12] was 13.2%. The viability, T/C (second compound 0.03 µM, first compound 0.00316 µM) was 114%, the viability, T/C (second compound 0.03 µM, first compound 0.01 µM) was 53.9% and the viability, T/C [13] was 22.2%. It also gave a viability, T/C [14] of 14.9%, a viability, T/C [15] of 14.6% and a viability, T/C [16] of 13.5%. It also gave a viability, T/C (second compound 0.0949 µM, first compound 0.00316 µM) of 95.7%, a viability, T/C (second compound 0.0949 µM, first compound 0.01 µM) of 50.1% and a viability, T/C [17] of 22.9%. For the same compound, the viability, T/C [18] was 14.3%, the viability, T/C [19] was 15.2% and the viability, T/C [20] was 12.6%. For the same compound, the viability, T/C (second compound 0.3 µM, first compound 0.00316 µM) was 69.7%, the viability, T/C (second compound 0.3 µM, first compound 0.01 µM) was 48.9% and the viability, T/C [21] was 27.8%. The viability, T/C [22] was 16.6%, the viability, T/C [23] was 17% and the viability, T/C [24] was 17%.
